We go through seven compounds from patent publication US20100292185A1, “BETA-LACTAMASE INHIBITORS” (priority 2009, published 2010).

Assay [1] has as its system E. cloacae expressing the Class C P99+. The experiment in a line: In vitro antibacterial assay of β-lactamase inhibition (broth microdilution MIC), E. cloacae P99+. Format: cell-based. As to conditions: in presence of Ceftazidime 8 μg/ml (Examples 1-56). The source says: (§1) To determine the ability of test compounds to potentiate the inhibition of the growth of bacterial strains producing beta-lactamase enzymes, classic cell based screening assays were employed. Five bacteria strains producing beta-lactamase enzymes were used: K. pneumoniae expressing the Class A Extended Spectrum Beta-Lactamase (ESBL) CTX-M-15, E. coli expressing the Class A ESBL SHV-5, E. cloacae expressing the Class C P99+, K. pneumoniae expressing the Class A carbapenemase KPC-2, and P. aeruginosa expressing the Class B metallo β-lactamase VIM-2. In order to evaluate the ability of test compounds to inhibit beta-lactamase activity, Applicants used a modification of the broth microdilution assay. The assay was conducted in Cation Adjusted Mueller Hinton Broth (CAMHB, BD # 212322, BD Diagnostic Systems, Sparks, Md.). Bacteria strains were grown for 3-5 hours in CAMBH broth. All five strains were grown in presence of 50 μg/mL ampicillin to ensure resistance is maintained. In the meantime, test compounds were diluted in DMSO to a 0.1 mg/mL stock. The compounds were added to a microtiter plate and were diluted in 2-fold serial dilutions in CAMHB in a final concentration range of 8 μg/mL to 0.015 μg/ml. […] Each of these compound plates are made in quadruplicate, one for each bacteria strain. In addition to the titration of test compounds the MICs of a panel of cephalosporins is also tested to ensure the strains are behaving consistently from test to test. Once the test compound and cephalosporin are added the plates can be inoculated. Inocula are conducted according to CLSI broth microdilution method. After inoculation the plates are incubated for 16-20 hours at 37° C. then the Minimal Inhibitory Concentration (MIC) of the test compound is determined visually.
(§2) Using the methodology described above, examples of the current invention were evaluated for their ability to inhibit the growth of β-lactamase producing bacteria in the presence of a β-lactam antibiotic.
For orientation: In broth dilution the organism is exposed to a series of concentrations in liquid medium.

Assay [2] has as its target T1, SHV-5 β-lactamase (Klebsiella pneumoniae, UniProt P0A3M1).
T1 construct: expressed as native untagged proteins; made in house; host or cells: E. coli BL21(DE3)
The experiment in a line: β-lactamase enzyme inhibition assay (nitrocefin substrate), SHV-5. Type of assay: biochemical. How it is done:
(§3) Isolation of β-lactamases. For SHV-5, p99 AmpC, KPC-2 and CTX-M15 β-lactamases, E. coli BL21(DE3) bacterial cells carrying expression plasmids (expressed as native untagged proteins) for the individual β-lactamases were grown in 1 L of Superbroth (Teknova Inc. Hollister, Calif.) supplemented with 100 μg/ml kanamycin and 1×5052 (0.5% glycerol, 0.05% glucose and 0.2% α-lactose) at 35° C. for 18-20 hours. Cells were harvested by centrifugation (4,000×g, 4° C., 20 min), and resuspended in 50 ml of 10 mM HEPES pH 7.5 (1/20 of the initial volume). The cells were lysed by sonication (5 pulses of 45 seconds) at 45 W on ice. The lysates were clarified by centrifugation at 10,000×g for 40 minutes at 4° C. Samples were diluted 5-fold in 50 mM sodium acetate pH 5.0, stored overnight at 4° C., after which they were centrifuged at 10,000×g for 30 minutes to clarify, and filtered through 0.45 μm filters. The samples were loaded onto a 5 ml Capto S sepharose cation exchange column (GE Healthcare) pre-equilibrated with 50 mM sodium acetate pH 5.0. The column was washed with 5 column volumes of 50 mM sodium acetate pH 5.0 to wash out unbound protein and a linear gradient of NaCl (0 to 500 mM) was used to elute the protein (over 16 CV) from the column. Fractions were assayed for β-lactamase activity using Centa (Calbiochem, Gibbstown, N.J.) as a reporter β-lactamase substrate for activity in the isolated fractions. Active fractions were pooled, concentrated and further purified by gel filtration chromatography on a Superdex 75 prep grade gel filtration column (GE Healthcare, Piscataway, N.J.) pre-equilibrated in 50 mM Hepes pH 7.5, 150 mM NaCl. Active fractions were pooled concentrated, quantitated by BCA protein determination (Thermo Scientific, Rockford, Ill.), and frozen at −80° C. in 20% glycerol until use.
(§4) β-lactamase Inhibition. To determine the level of inhibition of β-lactamase enzymes, compounds were diluted in PBS at pH 7.0 to yield concentrations between 100 and 0.005 μM in microtiter plates. An equal volume of diluted enzyme stock was added, and the plates were incubated at 37° C. for 10 min. Nitrocefin solution was then dispensed as substrate into each well at a final concentration of 100 μM, and the plates were immediately read with the kinetic program at 486 nm for 10 min on the SPECTRAMAX® Plus^384 (high-throughput microplate spectrophotometer; Molecular Devices Corp., Sunnyvale, Calif.). Maximum rates of metabolism were then compared to those in control wells (without inhibitors), and percentages of enzyme inhibition were calculated for each concentration of inhibitor. The concentration of inhibitor needed to reduce the initial rate of hydrolysis of substrate by 50% (IC50) was calculated as the residual activity of β-lactamase at 486 nm using the SoftMax Pro 5.0 software (Molecular Devices Corp.).
(§5) Using the methodology described above, examples of the current invention were evaluated for their ability to inhibit β-lactamase enzymes. The results of these assays are summarized in Table 2 for representative enzymes across different subtypes (note SHV-5 and CTXM-15 exemplify different subclasses of Ambler Class A Extended Spectrum Beta Lactamases, KPC-2 exemplifies Class A carbapenemases, P99 represents chromosomal Class C AmpC, VIM-2 exemplifies subclass B1 of metallo-β-lactamases, and OXA-23 represents chromosome-encoded Class D oxacillin-hydrolyzing β-lactamases), NT=not tested.

Assay [3] has as its system E. coli expressing the Class A ESBL SHV-5. The experiment in a line: In vitro antibacterial assay of β-lactamase inhibition (broth microdilution MIC), E. coli SHV-5. Type of assay: cell-based. To be noted: in presence of Ceftazidime 8 μg/ml (Examples 1-56).
Description: as §1, §2

The target in assay [4] is T2, p99 AmpC β-lactamase (Enterobacter cloacae, UniProt P05364).
T2 construct: expressed as native untagged proteins; made in house; host or cells: E. coli BL21(DE3)
T2 sequence (P05364 21-381): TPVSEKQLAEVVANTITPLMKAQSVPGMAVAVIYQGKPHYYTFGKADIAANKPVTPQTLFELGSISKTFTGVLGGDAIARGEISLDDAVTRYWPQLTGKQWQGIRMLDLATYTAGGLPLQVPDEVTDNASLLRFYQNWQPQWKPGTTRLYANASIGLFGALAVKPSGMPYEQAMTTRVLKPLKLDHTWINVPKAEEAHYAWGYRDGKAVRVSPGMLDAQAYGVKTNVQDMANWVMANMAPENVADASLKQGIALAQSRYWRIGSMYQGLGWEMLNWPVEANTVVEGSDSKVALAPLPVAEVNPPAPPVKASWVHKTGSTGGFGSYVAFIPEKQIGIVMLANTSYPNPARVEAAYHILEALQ
The assay is described as follows: β-lactamase enzyme inhibition assay (nitrocefin substrate), P99 AmpC. As to conditions: nitrocefin 100 μM, 37° C., PBS pH 7.0; read-out: P99 AmpC IC50. Format: biochemical. How it is done:
as §3, §4, §5

Assay [5] deals with T3, CTX-M15 β-lactamase (Escherichia coli, UniProt Q9EXV5).
T3 construct: expressed as native untagged proteins; made in house; host or cells: E. coli BL21(DE3)
T3 sequence (Q9EXV5 entry or part of it): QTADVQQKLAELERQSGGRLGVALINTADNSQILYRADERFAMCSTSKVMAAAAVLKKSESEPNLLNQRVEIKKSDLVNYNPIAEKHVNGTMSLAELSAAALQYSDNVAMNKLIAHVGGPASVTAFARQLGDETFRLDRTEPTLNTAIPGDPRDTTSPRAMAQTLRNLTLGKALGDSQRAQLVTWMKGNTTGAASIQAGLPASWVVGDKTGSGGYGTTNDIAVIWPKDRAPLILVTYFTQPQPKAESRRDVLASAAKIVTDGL
The assay is described as follows: β-lactamase enzyme inhibition assay (nitrocefin substrate), CTXM-15. Type of assay: biochemical. As to the method:
as §3, §4, §5

The test system of assay [6] is K. pneumoniae expressing the Class A Extended Spectrum Beta-Lactamase (ESBL) CTX-M-15. The assay is described as follows: In vitro antibacterial assay of β-lactamase inhibition (broth microdilution MIC), K. pneumoniae CTX-M-15. Format: cell-based. As to conditions: in presence of Ceftazidime 8 μg/ml (Examples 1-56).
Description: as §1, §2

Assay [7] has as its target T4, KPC-2 β-lactamase (Klebsiella pneumoniae, UniProt Q9F663).
T4 construct: expressed as native untagged proteins; made in house; host or cells: E. coli BL21(DE3)
The assay is described as follows: β-lactamase enzyme inhibition assay (nitrocefin substrate), KPC-2. Type of assay: biochemical. As to the method: as §3, §4, §5

The test system of assay [8] is P. aeruginosa expressing the Class B metallo β-lactamase VIM-2. The experiment in a line: In vitro antibacterial assay of β-lactamase inhibition (broth microdilution MIC), P. aeruginosa VIM-2. To be noted: in presence of Ceftazidime 16 μg/mL (Examples 1-56). Type of assay: cell-based.
Description: as §1, §2

Assay [9] has as its system K. pneumoniae expressing the Class A carbapenemase KPC-2. The experiment in a line: microbe, parasite or virus in culture. Type of assay: cell-based. As to conditions: in presence of Ceftazidime 8 μg/ml (Examples 1-56).
Description: as §1, §2

Where a name gives a salt, the structure may show the parent alone. Where only a bound is given, the exact number is not on record here.

T4 sequence (Q9F663 25-293 limits assumed): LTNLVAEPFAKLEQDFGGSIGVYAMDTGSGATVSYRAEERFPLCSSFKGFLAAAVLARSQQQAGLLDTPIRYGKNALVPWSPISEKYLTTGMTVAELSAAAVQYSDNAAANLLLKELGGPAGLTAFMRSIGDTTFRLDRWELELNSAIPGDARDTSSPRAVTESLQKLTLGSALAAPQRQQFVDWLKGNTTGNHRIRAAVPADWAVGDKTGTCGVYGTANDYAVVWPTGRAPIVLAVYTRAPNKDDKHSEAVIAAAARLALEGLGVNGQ
T1 sequence (P0A3M1 22-286): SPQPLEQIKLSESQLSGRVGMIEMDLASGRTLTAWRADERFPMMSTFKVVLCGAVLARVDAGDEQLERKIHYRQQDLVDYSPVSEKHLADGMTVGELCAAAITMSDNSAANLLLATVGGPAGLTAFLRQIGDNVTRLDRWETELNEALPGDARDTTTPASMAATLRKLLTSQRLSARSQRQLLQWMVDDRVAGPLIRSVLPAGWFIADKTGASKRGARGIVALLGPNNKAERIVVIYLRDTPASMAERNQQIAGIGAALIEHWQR

Regarding `Cl.O=C(N[C@@H](Cc1cccc(C(=O)O)c1O)B(O)O)c1ccc(CNCCO)cc1` [Example 16, (1R)-[4-(2-hydroxy-ethylamino)-methyl]-benzoylamino-(3-carboxy-2-hydroxy)benzyl-methyl boronic acid hydrochloride], the “MIC of example compound, E. cloacae P99+” value in assay [1] was found to be 0.25 µg/mL. For the same compound, the half-maximal inhibitory concentration (IC50) (commonly the concentration that inhibits the measured activity by half) in [2] was more than 1000 nM; in assay [4] it was 6 nM; in [5], 5 nM; in assay [7], 5 nM. Besides, in assay [3], the “MIC of example compound, E. coli SHV-5” value is 8 µg/mL. In addition, the “MIC of example compound, K. pneumoniae CTX-M-15” value (“MIC … K. pneumoniae CTX-M-15” below) in assay [6] is 1 µg/mL. In addition, the “MIC of example compound, P. aeruginosa VIM-2” value (from here on “MIC … P. aeruginosa VIM-2”) in [8] was 4 µg/mL. For the same compound, the “MIC of example compound, K. pneumoniae KPC-2” value (“MIC … K. pneumoniae KPC-2” below) in assay [9] stood at 0.03 µg/mL.

On to `O=C(N[C@@H](Cc1cccc(C(=O)O)c1O)B(O)O)c1cccc(CN(CCO)CCO)c1` [Example 23, (1R)-(3-{[bis-(2-hydroxy-ethyl)-amino]-methyl}-benzoylamino)-(3-carboxy-2-hydroxy)benzyl-methylboronic acid formate], for which the “MIC of example compound, E. cloacae P99+” value in assay [1] was 2 µg/mL. The half-inhibitory concentration (IC50) in assay [2] came to 17 nM; in [4], 0.9 nM; in [5], 2 nM; in assay [7], 8.1 nM. For the same compound, the “MIC of example compound, E. coli SHV-5” value in assay [3] came out at 8 µg/mL. The “MIC … K. pneumoniae CTX-M-15” value in [6] came to 1 µg/mL. For the same compound, in [8], the “MIC … P. aeruginosa VIM-2” value was more than 8 µg/mL. Further, the “MIC … K. pneumoniae KPC-2” value in assay [9] is 0.12 µg/mL.

Consider `CC(=O)N(CCN)Cc1cccc(C(=O)N[C@@H](Cc2cccc(C(=O)O)c2O)B(O)O)c1` [Example 24, (1R)-(3-{[acetyl-(2-amino-ethyl)-amino]-methyl}-benzoylamino)-(3-carboxy-2-hydroxy)benzyl-methylboronic acid formate], for which the “MIC of example compound, E. cloacae P99+” value in assay [1] was found to be 1 µg/mL. Further, the IC50 in [2] came out at 350 nM; in assay [4], 2 nM; in [5] it was 4 nM; in assay [7], 18 nM. Moreover, the “MIC of example compound, E. coli SHV-5” value in assay [3] came to 8 µg/mL. For the same compound, in [6], the “MIC … K. pneumoniae CTX-M-15” value is 1 µg/mL. The “MIC … P. aeruginosa VIM-2” value in [8] was more than 8 µg/mL. Also, in assay [9], the “MIC … K. pneumoniae KPC-2” value is 0.12 µg/mL.

As for `O=C(N[C@@H](Cc1cccc(C(=O)O)c1O)B(O)O)c1cccc(CNCCCO)c1` [Example 25, (1R)-[3-{(3-hydroxy-propylamino)-methyl}-benzoylamino]-(3-carboxy-2hydroxy)benzyl-methylboronic acid formate], in [1], the “MIC of example compound, E. cloacae P99+” value turned out to be 0.5 µg/mL. The IC50 in assay [2] was determined as 580 nM; in assay [4], 0.9 nM; in assay [5], 3 nM; in assay [7] it was 20 nM. Besides, in [3], the “MIC of example compound, E. coli SHV-5” value came to 8 µg/mL. For the same compound, the “MIC … K. pneumoniae CTX-M-15” value in [6] stood at 1 µg/mL. The “MIC … P. aeruginosa VIM-2” value in assay [8] is more than 8 µg/mL. Also, the “MIC … K. pneumoniae KPC-2” value in assay [9] was 0.03 µg/mL.

Take `O=C(N[C@@H](Cc1cccc(C(=O)O)c1O)B(O)O)c1cccc(CNc2cccnc2)c1` [Example 26, (1R)-[3-(pyridin-3-ylaminomethyl)-benzoylamino]-(3-carboxy-2hydroxy)benzyl-methylboronic acid formate]: the “MIC of example compound, E. cloacae P99+” value in assay [1] worked out at 2 µg/mL. Besides, the 50% inhibitory concentration (IC50) in [2] was determined as 94 nM; in [4] it was 0.4 nM; in [5], 1 nM; in assay [7] it was 11 nM. For the same compound, the “MIC of example compound, E. coli SHV-5” value in assay [3] was more than 8 µg/mL. Further, in assay [6], the “MIC … K. pneumoniae CTX-M-15” value turned out to be 4 µg/mL. The “MIC … P. aeruginosa VIM-2” value in assay [8] was more than 8 µg/mL. In addition, the “MIC … K. pneumoniae KPC-2” value in assay [9] turned out to be 0.5 µg/mL.

In the case of `CN(C)Cc1cccc(C(=O)N[C@@H](Cc2cccc(C(=O)O)c2O)B(O)O)c1` [Example 27, (1R)-(3-dimethylaminomethyl-benzoylamino)-(3-carboxy-2-hydroxy)benzyl-methylboronic acid formate], the “MIC of example compound, E. cloacae P99+” value in assay [1] is 0.5 µg/mL. Moreover, the IC50 stood at 312 nM in assay [2], 1.4 nM in assay [4], 3 nM in [5] and 14 nM in [7]. Besides, the “MIC of example compound, E. coli SHV-5” value in assay [3] was more than 8 µg/mL. The “MIC … K. pneumoniae CTX-M-15” value in [6] was 1 µg/mL. Also, the “MIC … P. aeruginosa VIM-2” value in assay [8] is more than 8 µg/mL. In addition, in assay [9], the “MIC … K. pneumoniae KPC-2” value was determined as 0.03 µg/mL.

With `CC(C)(O/N=C(\C(=O)N[C@@H](Cc1cccc(C(=O)O)c1O)B(O)O)c1csc(NC(=O)CN)n1)C(=O)O.Cl` [Example 50, 3-{2(R)-[2-[2-(2-amino-acetylamino)-thiazol-4-yl]-2(Z)-(1-carboxy-1-methyl-ethoxyimino)-acetylamino]-2-borono-ethyl}-2-hydroxy-benzoic acid hydrochloride], in assay [1], the “MIC of example compound, E. cloacae P99+” value was more than 8 µg/mL. Also, the IC50 in assay [2] amounted to 24 nM; in assay [4], 23 nM; in [5], 34 nM; in assay [7] it was 158 nM. In addition, in [3], the “MIC of example compound, E. coli SHV-5” value is more than 8 µg/mL. For the same compound, in [6], the “MIC … K. pneumoniae CTX-M-15” value was more than 8 µg/mL. Also, in assay [8], the “MIC … P. aeruginosa VIM-2” value was more than 8 µg/mL. In assay [9], the “MIC … K. pneumoniae KPC-2” value is more than 8 µg/mL.
